Assay results taken from patent publication US8558004B2, “Reagents and kits for detection of influenza virus and the like” (priority 2007, dated 2013).

System: influenza virus (A/WS/33)
Details: FIG. 6
Method: The protocol described here is a two-step assay, i.e., the neuraminidase reaction and firefly luciferase reaction are carried out sequentially in two steps. Approximately 1 μg of conjugate was incubated at 37° C. for 15 minutes with 0, 0.5, 5, 50, 500 or 5,000 TCID50 units of influenza virus (A/WS/33) in a 25 μL reaction solution (32.5 mM MES, pH 6.5, 4 mM CaCl2, 0.65% Triton X-100). 12.5 μL of the reaction solution was mixed with 100 μL of luciferase reaction solution (20 nM recombinant firefly luciferase, 4 mM ATP, 13.4 mM MgSO4, 100 mM Trizma, pH 7.9, 4% mannitol, and 1% sucrose) and measured for light signal using a luminometer (Sirius purchased from Berthold). Total light output was collected by integrating RLU over a period of 30 seconds.

SMILES: CC(=O)NC1C(O)CC(Oc2ccc3nc(C4=NC(C(=O)O)CS4)sc3c2)(C(=O)O)OC1C(O)C(O)CO (centres unmarked) [N-acetylneuraminic acid-firefly luciferin conjugate]
- influenza virus input resulting in significantly more signal in comparison with the negative control (approx. 1 μg conjugate, 37° C., 15 minutes, pH 6.5, RLU integrated over 30 seconds): 50 TCID50 units
- response of the signal to virus input (over the entire range tested (0.5 to 5,000 TCID50 units)): linear response
